Experiment [1] relates to SW620 colon carcinoma cells. Put plainly: SW620 colon carcinoma xenograft in nude mice, tumor volume. The experiment is classed as in vivo, Balb/C nu/nu-mice. Conditions: oral, once daily, day 8 to day 27. As to the method: Female Balb/C nu/nu-mice(n=12 per group), aged 8-10 weeks, were subcutaneously injected with […] SW620 colon carcinoma cells. On day 6, animals with tumor volumes of about 200 mm^3 were randomly assigned to treatment groups. The test compound was administered as a fine suspension in 0.5% methylcellulose with an application volume of 10 ml/kg based on actual body weights. Oral treatment started on day 8 and continued through to day 27 on a once daily, 7 times per week treatment schedule.
The volume of the tumor was determined from the following equation:
Volume of a tumor=½×(major axis)×(minor axis)2

Experiment [2] addresses T1, rec. HDAC-1 purified from HEK 293 cells (Homo sapiens, UniProt Q13547).
T1 construct: made in house; host or cells: HEK 293 cells
Put plainly: Assay for inhibition of histone deacetylase (HDAC), quenched peptide / Lys C fluorescence. In kind it is biochemical. The note with it: 10 concentrations starting at 30 uM, 90 min incubation. The source says:
A) Assay for Inhibition of Histone Deacetylase (HDAC)
HDAC deacetylates lysines in histone H4. A 17 aa peptide with TAMRA at the C-terminus and QSY7 at the N-terminus was used as a substrate. Following deacetylation by HDAC the enzyme Lys C is able to cleave the peptide resulting in disappearence of the quench effect and a high signal. Inhibition of HDAC by compounds results in low signals because Lys C has no substrate for cleaving and the quench effect persists.
For dose response curves 10 concentrations were diluted starting at 30 uM. 10 ul compound dilution were put into each well of a 384 well plate. 10 ul HDAC (rec. HDAC-1 purified from HEK 293 cells; activity was assessed for each preparation) were added. 10 ul peptide was added (1 uM final concentration). After 90 min incubation at room temperature the reaction was stopped by addition of 20 ul test buffer including 3 ug/ml Lys C and 0.075% SDS. After overnight incubation the fluorescent signal of TAMRA was measured at absorption 544 nm, emission 590 nm by Victor 2.

The test system of experiment [3] is E-cadherin expression in A549. Put plainly: E-cadherin upregulation assay (ELISA, with WST-1 proliferation in the same well). In kind it is cell-based. The note with it: A549 human lung carcinoma cells; % proliferation subtracted from % E-cadherin expression; 10 concentrations starting at 40 uM; read-out: E-cadherin upregulation EC50 [μM] (Assay B). The text has this:
B) E-cadherin Upregulation Assay
E-cadherin as an adhesion molecule is important for connection of the cells and integrity of tissues. […] Upregulation of the protein in cells where there is insufficient E-cadherin is regarded as a marker for the differentiation of the tumor cell. This corresponds to leaving the undifferentiated tumor cell status.
The compounds described are able to upregulate expression of E-cadherin in A549. In parallel, the proliferation of the cells is examined. The activity of an E-cadherin upregulator is defined as an increase in E-cadherin expression determined by an ELISA. Cell proliferation is also determined by WST-1 in the same well.
The assay was performed in 384-well format. […] 5000 cells per well were seeded in culture medium with 10% FCS at day 1. At day 2 compounds in different concentrations starting at 40 uM were added at a final concentration of DMSO of 0.5%. At day 4, WST-1 reagent was added and absorption was measured after 45 min (450 nm/690 nm).
The medium was aspirated, 100 ul fixation solution was added per well and discarded after 30 min, followed by addition of 100 ul blocking solution. […] Absorption was measured at 405 nm.
% proliferation of cells is substracted from % E-cadherin expression resulting in Delta. The dose response curve resulting from 10 concentrations was calculated using XLfit. […]

The values that follow come from patent US6946462B2, “N-monoacylated derivatives of o-phenylenediamines, their analogs and their use as pharmaceutical agents” (Hoffmann-La Roche Inc., priority 2001, dated 2005).

T1 sequence (Q13547 whole entry): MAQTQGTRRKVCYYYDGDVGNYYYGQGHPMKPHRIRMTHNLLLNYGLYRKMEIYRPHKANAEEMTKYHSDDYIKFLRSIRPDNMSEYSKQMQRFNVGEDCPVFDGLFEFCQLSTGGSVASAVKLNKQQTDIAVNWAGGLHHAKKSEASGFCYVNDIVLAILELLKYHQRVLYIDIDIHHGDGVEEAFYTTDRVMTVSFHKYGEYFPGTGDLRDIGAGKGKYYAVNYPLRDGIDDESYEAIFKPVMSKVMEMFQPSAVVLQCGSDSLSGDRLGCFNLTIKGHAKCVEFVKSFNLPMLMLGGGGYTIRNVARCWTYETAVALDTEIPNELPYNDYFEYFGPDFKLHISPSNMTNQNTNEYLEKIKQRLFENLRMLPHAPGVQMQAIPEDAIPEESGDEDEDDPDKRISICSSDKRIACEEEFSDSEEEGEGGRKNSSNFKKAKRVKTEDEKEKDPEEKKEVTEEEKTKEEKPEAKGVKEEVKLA

With `Nc1ccccc1NC(=O)c1cscn1` [Compound 38, Thiazole-4-carboxylic acid (2-amino-phenyl)-amide], the “Tumor volume (mm^3)” value in experiment [1] (end of the study, female Balb/C nu/nu mice with s.c. SW620 tumors) is recorded as 1029.0 mm^3. The “% inhibition vs. control” value in experiment [1] (tumor volume at the end of the study, SW620 xenograft) stood at 53%. This molecule also returned an IC50 in experiment [2] of 11.1 µM. In addition, the EC50 in experiment [3] turned out to be 5.9 µM.

As a reminder, the IC50 is the concentration at which inhibition is half-maximal. Lower therefore signals inhibition by little substance. The EC50 is the midpoint of the concentration-response curve.
